Assay results reported in EPA's ToxRefDB 2.

Tests used:
[1] = test system: rat; settings: Subchronic oral toxicity in rodents, wistar, Feed, dose end: 90 day, group: systemic, systemic / clinical chemistry / urea nitrogen / urea + systemic / hematology / blood clotting / blood clotting - clotting time + systemic / …
[2] = test system: rabbit; settings: Prenatal developmental toxicity study, new zealand white, Oral, Gavage/Intubation, dose end: 19 GD
[3] = test system: rat; settings: Developmental neurotoxicity study, sprague dawley, Oral, Feed, dose end: 72 PND, group: cannot be grouped
[4] = test system: rat; settings: Developmental neurotoxicity study; sprague dawley; Oral; [Not Specified]; dose end: 87 PND; group: cannot be grouped; systemic / in life observation / clinical signs / abnormal posture
[5] = test system: mouse; settings: Developmental neurotoxicity study; other; Oral; Feed; dose end: 77 PND; group: cannot be grouped; systemic / pathology microscopic / brain / [other] + systemic / pathology microscopic / brain / depletion
[6] = test system: mouse; settings: Combined chronic toxicity/carcinogenicity; b6c3f1; Oral; Feed; dose end: 107 week; group: systemic; systemic / pathology microscopic / liver / hepatocyte, multinucleate
[7] = test system: rat; settings: Subchronic oral toxicity in rodents, other, Feed, dose end: 90 day, group: systemic
[8] = test system: rat; settings: Multigenerational reproductive toxicity study, sprague dawley, Oral, Feed, dose end: 3 generation
[9] = test system: rat; settings: Multigenerational reproductive toxicity study, sprague dawley, Oral, Gavage/Intubation, dose end: 2 generation
[10] = test system: dog; settings: Chronic toxicity; beagle; Oral; Feed; dose end: 24 month; group: systemic; systemic / in life observation / body weight / body weight gain + systemic / in life observation / food consumption / food efficiency + …
[11] = test system: rat; settings: Prenatal developmental toxicity study, wistar, Oral, Gavage/Intubation, dose end: 19 GD
[12] = test system: rat; settings: Multigenerational reproductive toxicity study, sprague dawley, Oral, Feed, dose end: 2 generation
[13] = test system: mouse; settings: Carcinogenicity; cd1; Oral; [Not Specified]; dose end: 18 month; group: systemic; systemic / in life observation / body weight / body weight + systemic / in life observation / body weight / body weight gain
[14] = test system: rat; settings: Combined chronic toxicity/carcinogenicity, sprague dawley, Oral, Feed, dose end: 24 month, group: systemic
[15] = test system: rat; settings: Subchronic oral toxicity in rodents, sprague dawley, Feed, dose end: 13 week, group: systemic, systemic / in life observation / body weight / body weight + systemic / in life observation / body weight / body weight gain + systemic / in…
[16] = test system: rat; settings: Carcinogenicity, other, Oral, Feed, dose end: 80 week, group: systemic
[17] = test system: mouse; settings: Carcinogenicity; b6c3f1; Oral; Feed; dose end: 80 week; group: systemic; systemic / pathology microscopic / liver / hepatocellular carcinoma + systemic / in life observation / clinical signs / alopecia + systemic…
[18] = group: developmental, systemic / in life observation / body weight / fetal weight
[19] = group: maternal, systemic / in life observation / mortality / mortality + reproductive / reproductive performance / aborted / aborted + systemic / in life …
[20] = systemic / in life observation / body weight / body weight + systemic / in life observation / body weight / body weight gain + systemic / in…
[21] = systemic / in life observation / food consumption / food consumption
[22] = systemic / in life observation / food consumption / food consumption + systemic / in life observation / body weight / body weight
[23] = group: offspring, developmental / developmental landmark / vaginal opening / vaginal opening + systemic / in life observation / body weight / offspring (pup) …
[24] = group: parental, systemic / in life observation / body weight / body weight + systemic / in life observation / body weight / body weight gain + systemic / …
[25] = group: reproductive, reproductive / reproductive performance / implantations / implantations + reproductive / offspring survival early / litter size / litter …
[26] = group: offspring, developmental / offspring survival late / lactation index / lactation index + developmental / offspring survival late / viability index / …
[27] = group: parental, systemic / in life observation / clinical signs / salivation + systemic / in life observation / body weight / body weight gain + systemic / …
[28] = group: reproductive, reproductive / offspring survival early / litter size / litter size
[29] = group: developmental, developmental / developmental malformation / bone / incomplete ossification
[30] = group: developmental, developmental / developmental malformation / bone / incomplete ossification + systemic / in life observation / body weight / fetal weight
[31] = group: maternal, systemic / in life observation / mortality / mortality + reproductive / offspring survival early / dead fetuses / dead fetuses
[32] = group: maternal, systemic / in life observation / mortality / mortality + reproductive / reproductive performance / postimplantation loss / postimplantation …
[33] = group: parental, systemic / in life observation / body weight / body weight
[34] = group: reproductive, reproductive / reproductive performance / gestational length / gestational length
[35] = systemic / in life observation / body weight / body weight + systemic / in life observation / clinical signs / fur (altered appearance) + …
[36] = systemic / in life observation / clinical signs / fur (altered appearance) + systemic / in life observation / clinical signs / palpable mass…

NC(=O)c1c(Cl)cccc1Cl [2,6-Dichlorobenzamide]
LEL [1]: 49 mg/kg/day
LOAEL [1]: 49 mg/kg/day
NEL [1]: 14 mg/kg/day
NOAEL [1]: 14 mg/kg/day
LEL [2, 18]: 90 mg/kg/day
LOAEL [2, 18]: 90 mg/kg/day
NEL [2, 18]: 30 mg/kg/day
NOAEL [2, 18]: 30 mg/kg/day
LOAEL ([2]; group: maternal, systemic / in life observation / mortality / mortality): 30 mg/kg/day
NEL [2, 19]: 10 mg/kg/day
NOAEL [2, 19]: 10 mg/kg/day
LEL ([2]; group: maternal, systemic / in life observation / mortality / mortality + systemic / in life observation / clinical signs / moribundity): 30 mg/kg/day

CC(C)(c1ccc(O)cc1)c1ccc(O)cc1 [Bisphenol A]
LOAEL ([3]; systemic / in life observation / body weight / body weight + systemic / in life observation / body weight / body weight gain): 56.4 mg/kg/day
LEL [3, 20]: 56.4 mg/kg/day
NEL [3, 20]: 5.85 mg/kg/day
NOAEL [3, 20]: 5.85 mg/kg/day
LEL [4]: 0.04 mg/kg/day
LOAEL [4]: > 0.4 mg/kg/day
NEL [4]: < 0.04 mg/kg/day
NOAEL [4]: ≥ 0.4 mg/kg/day
LEL [5]: 0.03 mg/kg/day
LOAEL [5]: > 2000 mg/kg/day
NEL [5]: < 0.03 mg/kg/day
NOAEL [5]: ≥ 2000 mg/kg/day
LEL [6]: 150 mg/kg/day
LOAEL [6]: > 750 mg/kg/day
NEL [6]: < 150 mg/kg/day
NOAEL [6]: ≥ 750 mg/kg/day
LEL [7, 21]: 5 mg/kg/day
NEL [7, 21]: < 5 mg/kg/day
LOAEL [7, 22]: > 25 mg/kg/day
NOAEL [7, 22]: ≥ 25 mg/kg/day
LEL [8, 23]: 500 mg/kg/day
LOAEL [8, 23]: > 500 mg/kg/day
NEL [8, 23]: 50 mg/kg/day
NOAEL [8, 23]: ≥ 500 mg/kg/day
LEL ([8]; group: parental, systemic / in life observation / body weight / body weight + systemic / in life observation / body weight / body weight gain): 50 mg/kg/day
LOAEL [8, 24]: > 500 mg/kg/day
NEL [8, 24]: 5 mg/kg/day
NOAEL [8, 24]: ≥ 500 mg/kg/day
NEL ([8]; group: reproductive, reproductive / reproductive performance / implantations / implantations): 50 mg/kg/day
LEL [8, 25]: 500 mg/kg/day
LOAEL [8, 25]: > 500 mg/kg/day
NOAEL [8, 25]: ≥ 500 mg/kg/day

CCCOC(=O)NCCCN(C)C.Cl [Propamocarb hydrochloride]
LEL [9, 26]: 1000 mg/kg/day
LOAEL [9, 26]: 1000 mg/kg/day
NEL [9, 26]: 200 mg/kg/day
NOAEL [9, 26]: 200 mg/kg/day
LEL [9, 27]: 200 mg/kg/day
LOAEL [9, 27]: 1000 mg/kg/day
NEL [9, 27]: 50 mg/kg/day
NOAEL [9, 27]: 200 mg/kg/day
LEL [9, 28]: 1000 mg/kg/day
LOAEL [9, 28]: 1000 mg/kg/day
NEL [9, 28]: 200 mg/kg/day
NOAEL [9, 28]: 200 mg/kg/day
LEL [10]: 22.8 mg/kg/day
LOAEL [10]: 22.8 mg/kg/day
NEL [10]: < 22.8 mg/kg/day
NOAEL [10]: < 22.8 mg/kg/day
LEL [11, 29]: 740 mg/kg/day
LOAEL [11, 29]: 740 mg/kg/day
NEL [11, 30]: 221 mg/kg/day
NOAEL [11, 30]: 221 mg/kg/day
LEL [11, 31]: 740 mg/kg/day
LOAEL [11, 31]: 740 mg/kg/day
NEL [11, 32]: 221 mg/kg/day
NOAEL [11, 32]: 221 mg/kg/day
LOAEL ([12]; group: offspring, systemic / in life observation / body weight / offspring (pup) weight): 485 mg/kg/day
NOAEL ([12]; group: offspring, systemic / in life observation / body weight / offspring (pup) weight + systemic / organ weight / brain / relative to body weight + systemic…): 75.4 mg/kg/day
LEL ([12]; group: offspring, systemic / organ weight / brain / absolute): 85.3 mg/kg/day
NEL ([12]; group: offspring, systemic / organ weight / brain / absolute + systemic / in life observation / body weight / offspring (pup) weight + systemic / organ weight…): 14.2 mg/kg/day
LEL [12, 33]: 407 mg/kg/day
LOAEL [12, 33]: 407 mg/kg/day
NEL [12, 33]: 65.4 mg/kg/day
NOAEL [12, 33]: 65.4 mg/kg/day
LEL [12, 34]: 467 mg/kg/day
LOAEL [12, 34]: > 467 mg/kg/day
NEL [12, 34]: 76.8 mg/kg/day
NOAEL [12, 34]: ≥ 467 mg/kg/day
LEL [13]: 95 mg/kg/day
LOAEL [13]: 95 mg/kg/day
NEL [13]: 12 mg/kg/day
NOAEL [13]: 12 mg/kg/day
LEL [14, 20]: 682 mg/kg/day
LOAEL [14, 20]: 682 mg/kg/day
NOAEL [14, 20]: 84 mg/kg/day
NEL ([14]; systemic / pathology microscopic / brain / vacuolization): 84 mg/kg/day
LEL [15]: 716 mg/kg/day
LOAEL [15]: 716 mg/kg/day
NEL [15]: 363 mg/kg/day
NOAEL [15]: 363 mg/kg/day

ClC1=C(Cl)[C@]2(Cl)C3C(Cl)C(Cl)CC3[C@@]1(Cl)C2(Cl)Cl (stereo not given in full) [Chlordane]
LOAEL [16, 35]: > 12.1 mg/kg/day
NOAEL [16, 35]: ≥ 12.1 mg/kg/day
LEL [16, 36]: 6.04 mg/kg/day
NEL [16, 36]: < 6.04 mg/kg/day
LEL [17]: 4.49 mg/kg/day
LOAEL [17]: > 8.43 mg/kg/day
NEL [17]: < 4.49 mg/kg/day
NOAEL [17]: ≥ 8.43 mg/kg/day
